This note sets out measurements from publication PMC6522510 (Nature Communications, 2019).

Parameters in all cases: species or system AML cell lines (8); Primary HTS, single concentration about 10 uM, Cell Titer Glo viability; log10 luminescence, per cent inhibition relative to cycloheximide control
What all share (settings): 72 h, relative to cycloheximide control, log10 luminescence; inhibitor

For assay [1], the system named is U937.
The test system of assay [2] is M07e.
The subject of assay [3] is CHRF288-11.
In assay [4] the test system is CMK.
In assay [5] the test system is CMS.
Assay [6] relates to MOLM-13.
Assay [7] has as its system ML-2.
Assay [8] relates to MV4-11.

On to `CN(c1ccc(NC(=O)Nc2c(Cl)cccc2Cl)cc1)c1ccnc(Nc2cccc(CS(C)(=O)=O)c2)n1` [SJ000573099-1, U17983/31/1], for which, in assay [1], the U937 %inh is 19.94%. Moreover, in assay [2], the M07e %inh was 50.22%. In addition, the CHRF288-11 %inh in assay [3] was 15.56%. The CMK %inh in assay [4] came to 37.49%. Besides, the CMS %inh in assay [5] is 10.65%. In assay [6], the MOLM-13 %inh amounted to 85.25%. Besides, the ML-2 %inh in assay [7] turned out to be 37.92%. Besides, in assay [8], the MV4-11 %inh is 78.59%.

Consider `CCc1nn2ncccc2c1-c1ccnc(NC2CC2)n1` [SJ000573100-1, U16767/17/1], for which the U937 %inh in assay [1] turned out to be 0.5788%. For the same compound, the M07e %inh in assay [2] is on record as 1.664%. In assay [3], the CHRF288-11 %inh came out at 0.1094%. The CMK %inh in assay [4] is -4.45%. Moreover, the CMS %inh in assay [5] stood at 3.597%. In assay [6], the MOLM-13 %inh is listed as 5.368%. In addition, in assay [7], the ML-2 %inh was found to be 0.1681%. Moreover, the MV4-11 %inh in assay [8] was found to be 0.7749%.

As to `COc1cc2ncnc(Nc3ccc4c(cnn4Cc4ccccc4)c3)c2cc1OC` [SJ000573101-1, R143/104/1], the U937 %inh in assay [1] is 6.042%. For the same compound, the M07e %inh in assay [2] is 1.834%. The CHRF288-11 %inh in assay [3] turned out to be 5.092%. Also, in assay [4], the CMK %inh was 0.8373%. For the same compound, in assay [5], the CMS %inh worked out at 32.19%. Also, the MOLM-13 %inh in assay [6] is 25.02%. Also, the ML-2 %inh in assay [7] is -2.157%. Further, in assay [8], the MV4-11 %inh is given as 12.83%.

Take `CCS(=O)(=O)c1ccc(OC)c(Nc2nccc(N(C)c3ccc4c(C)n[nH]c4c3)n2)c1` [SJ000573103-1, U20513/4/2]: the U937 %inh in assay [1] was 1.879%. In addition, the M07e %inh in assay [2] was determined as 2.221%. In assay [3], the CHRF288-11 %inh was 5.806%. For the same compound, in assay [4], the CMK %inh came to 6.86%. Also, in assay [5], the CMS %inh was determined as 9.95%. Further, the MOLM-13 %inh in assay [6] was 9.892%. Further, the ML-2 %inh in assay [7] is reported as -1.801%. Besides, the MV4-11 %inh in assay [8] is given as 5.714%.

Consider `[O-][S+]1CCN(Cc2ccc(-c3ccc4ncnc(Nc5ccc(OCc6ccccc6)c(Cl)c5)c4c3)o2)CC1` [SJ000573105-1, U14859/143/2], for which, in assay [1], the U937 %inh was found to be 1.842%. The M07e %inh in assay [2] is -0.2789%. Also, in assay [3], the CHRF288-11 %inh is reported as 0.5474%. In assay [4], the CMK %inh came out at 4.729%. Also, the CMS %inh in assay [5] is reported as -1.021%. In assay [6], the MOLM-13 %inh was determined as 4.138%. Moreover, the ML-2 %inh in assay [7] was -0.9946%. For the same compound, the MV4-11 %inh in assay [8] was 5.18%.

In the case of `CS(=O)(=O)CCNCc1ccc(-c2ccc3ncnc(Nc4ccc(OCc5cccc(C(F)(F)F)c5)cc4)c3c2)o1` [SJ000573107-1, U14801/49/2], in assay [1], the U937 %inh is -2.16%. Further, in assay [2], the M07e %inh is reported as -0.9182%. Moreover, in assay [3], the CHRF288-11 %inh amounted to 2.523%. Moreover, the CMK %inh in assay [4] is on record as 3.779%. In assay [5], the CMS %inh is recorded as 0.378%. Moreover, the MOLM-13 %inh in assay [6] is 82.16%. In assay [7], the ML-2 %inh was found to be 1.894%. For the same compound, in assay [8], the MV4-11 %inh worked out at 64.67%.

Turning to `CS(=O)(=O)Nc1ccc(-c2cc(-c3ccccc3)cc(C(N)=O)c2N)cc1` [SJ000573108-1, R12070/86/1], the U937 %inh in assay [1] is -2.496%. Moreover, the M07e %inh in assay [2] is on record as 0.06792%. In addition, the CHRF288-11 %inh in assay [3] was found to be 2.153%. For the same compound, in assay [4], the CMK %inh was -4.619%. In addition, the CMS %inh in assay [5] is recorded as -2.317%. In assay [6], the MOLM-13 %inh is given as -0.8297%. Moreover, the ML-2 %inh in assay [7] was -0.5203%. The MV4-11 %inh in assay [8] stood at 0.1875%.

Regarding `N#Cc1ccc(Oc2nccc(-c3c(-c4ccc(F)cc4)ncn3C3CCNCC3)n2)cc1` [SJ000573110-1, JB27026-057C1], the U937 %inh in assay [1] is listed as -2.466%. In addition, in assay [2], the M07e %inh is 7.948%. The CHRF288-11 %inh in assay [3] amounted to 0.2466%. In addition, the CMK %inh in assay [4] is reported as -0.241%. Moreover, in assay [5], the CMS %inh is on record as -2.544%. Further, the MOLM-13 %inh in assay [6] turned out to be 1.125%. Moreover, the ML-2 %inh in assay [7] is reported as 1.756%. Moreover, the MV4-11 %inh in assay [8] was -1.125%.

As to `COc1c(C(N)=O)cc(-c2ccc(Cl)cc2)cc1-c1ccc(S(N)(=O)=O)cc1` [SJ000573112-1, R12706/72/1], the U937 %inh in assay [1] is given as 1.708%. In assay [2], the M07e %inh is -1.128%. Besides, the CHRF288-11 %inh in assay [3] is -3.227%. In assay [4], the CMK %inh turned out to be 7.525%. For the same compound, the CMS %inh in assay [5] amounted to 5.358%. Moreover, the MOLM-13 %inh in assay [6] turned out to be 6.365%. Also, in assay [7], the ML-2 %inh stood at 3.182%. Further, the MV4-11 %inh in assay [8] is on record as -1.028%.

Take `CS(=O)(=O)CCNCc1cc(-c2cc3c(Nc4ccc(OCc5cccc(F)c5)c(Cl)c4)ncnc3s2)cs1` [SJ000573113-1, U20258/167/2]: the U937 %inh in assay [1] worked out at 1.681%. Moreover, the M07e %inh in assay [2] came out at 1.088%. Further, the CHRF288-11 %inh in assay [3] is -4.074%. For the same compound, the CMK %inh in assay [4] was determined as 4.188%. Further, the CMS %inh in assay [5] was found to be 1.969%. Moreover, the MOLM-13 %inh in assay [6] worked out at 4.183%. In assay [7], the ML-2 %inh is given as -1.098%. The MV4-11 %inh in assay [8] amounted to 1.359%.

Take `COc1cccc(/C=N/Nc2ncnc3c2cnn3-c2cccc(OC)c2)c1` [SJ000573114-1, U19125/70/2]: in assay [1], the U937 %inh is -1.619%. Moreover, in assay [2], the M07e %inh is -0.7733%. Besides, the CHRF288-11 %inh in assay [3] is -4.16%. Moreover, the CMK %inh in assay [4] was 1.014%. In addition, the CMS %inh in assay [5] turned out to be 0.5792%. In assay [6], the MOLM-13 %inh was 0.5296%. In addition, the ML-2 %inh in assay [7] is listed as -2.362%. Also, the MV4-11 %inh in assay [8] is -0.9072%.

Turning to `COc1cc(Nc2ncc(-c3ccccc3)o2)cc(OC)c1` [SJ000573115-1, U21834/32/1], the U937 %inh in assay [1] was 0.9564%. Moreover, the M07e %inh in assay [2] worked out at 1.992%. Moreover, the CHRF288-11 %inh in assay [3] is given as -9.037%. The CMK %inh in assay [4] is reported as 3.561%. Moreover, the CMS %inh in assay [5] is -1.309%. Moreover, in assay [6], the MOLM-13 %inh was determined as 74.91%. In addition, in assay [7], the ML-2 %inh stood at 2.252%. Besides, the MV4-11 %inh in assay [8] turned out to be 75.56%.

As for `O=S(=O)(CCOCc1ccc(-c2ccc3ncnc(Nc4ccc(OCc5cccc(F)c5)c(Cl)c4)c3c2)o1)c1ccccc1` [SJ000573116-1, U15872/4/1], in assay [1], the U937 %inh is -1.869%. In addition, the M07e %inh in assay [2] is reported as -2.095%. Also, the CHRF288-11 %inh in assay [3] is given as -0.6594%. The CMK %inh in assay [4] was -5.52%. The CMS %inh in assay [5] is reported as 1.936%. Moreover, the MOLM-13 %inh in assay [6] is recorded as -1.247%. The ML-2 %inh in assay [7] is -0.1863%. In assay [8], the MV4-11 %inh was determined as 2.149%.

On to `COc1ccccc1Nc1ncc(-c2ccccc2)o1` [SJ000573117-1, U14961/90/1], for which the U937 %inh in assay [1] is -2.759%. Besides, in assay [2], the M07e %inh stood at 4.937%. Further, the CHRF288-11 %inh in assay [3] turned out to be 5.085%. The CMK %inh in assay [4] is on record as -0.2443%. For the same compound, the CMS %inh in assay [5] was -1.143%. Also, the MOLM-13 %inh in assay [6] was 90.67%. The ML-2 %inh in assay [7] amounted to 0.6262%. The MV4-11 %inh in assay [8] was found to be 83.21%.

On to `NC(=O)c1ccc(Oc2nccc(-c3c(-c4ccc(F)cc4)ncn3C3CCNCC3)n2)cc1` [SJ000573120-1, JB27193-061B1], for which the U937 %inh in assay [1] is reported as 4.71%. Further, in assay [2], the M07e %inh is -0.791%. The CHRF288-11 %inh in assay [3] is reported as 0.2701%. Also, in assay [4], the CMK %inh is 7.904%. For the same compound, the CMS %inh in assay [5] is reported as -1.264%. Further, the MOLM-13 %inh in assay [6] came out at 6.408%. Besides, the ML-2 %inh in assay [7] was 1.469%. The MV4-11 %inh in assay [8] was 1.936%.

As to `Fc1cccc(COc2ccc(Nc3ncnc4sc(-c5cccs5)cc34)cc2Cl)c1` [SJ000573122-1, U22476/39/1], in assay [1], the U937 %inh was 3.407%. Also, the M07e %inh in assay [2] is -0.3704%. Besides, the CHRF288-11 %inh in assay [3] is -6.815%. In assay [4], the CMK %inh was determined as 1.871%. The CMS %inh in assay [5] was -1.772%. Moreover, the MOLM-13 %inh in assay [6] worked out at 3.265%. In addition, in assay [7], the ML-2 %inh turned out to be 0.7454%. In assay [8], the MV4-11 %inh is -2.021%.

Regarding `Fc1ccc(-c2ncn(C3CCNCC3)c2-c2ccnc(Oc3ccc4c(c3)OCO4)n2)cc1` [SJ000573123-1, JB27026-196B1], the U937 %inh in assay [1] is listed as 5.059%. Moreover, in assay [2], the M07e %inh is 3.354%. Also, in assay [3], the CHRF288-11 %inh is listed as 7.293%. Moreover, in assay [4], the CMK %inh was 13.54%. Moreover, the CMS %inh in assay [5] is listed as 0.7899%. Moreover, the MOLM-13 %inh in assay [6] came to 2.344%. Besides, in assay [7], the ML-2 %inh is listed as 3.564%. Besides, the MV4-11 %inh in assay [8] is given as 0.1546%.

As to `CS(=O)(=O)CCNCc1ccc(-c2ccc3ncnc(Nc4ccc(OCc5ccccc5)c(C(F)(F)F)c4)c3c2)o1` [SJ000573124-1, U14859/90/2], the U937 %inh in assay [1] came to 1.669%. Further, in assay [2], the M07e %inh is listed as -5.391%. Further, in assay [3], the CHRF288-11 %inh is -4.921%. Besides, the CMK %inh in assay [4] is on record as -0.3954%. In assay [5], the CMS %inh was -0.5761%. Further, the MOLM-13 %inh in assay [6] came out at 3.836%. In addition, in assay [7], the ML-2 %inh came to 3.074%. In addition, the MV4-11 %inh in assay [8] is listed as -0.8429%.
